{"source": "patent US20250114387A1", "about": "“PHARMACEUTICAL COMPOSITION COMPRISING ENAVOGLIFLOZIN FOR PREVENTING OR TREATING OBESITY IN CANINE ANIMALS” (DAEWOONG PHARMACEUTICAL CO., LTD., priority 2022, published 2025)", "test_system": "obese dogs", "assay": "Clinical trial in obese dogs: BCS, body weight, chest and waist circumference, resting energy requirement, fat thickness, body fat", "assay_type": "in vivo", "excerpt": "Adult dogs which were naturally obese but otherwise healthy were selected regardless of breed, sex, and altered status, and informed consent was obtained from the dog owners for participation in the clinical trial.\nAs a result of physical examination of all dogs (including body weight and BCS (a total of 9 levels), FIG. 1 and Table 1), those diagnosed as obese were selected. The BCS used to select dogs is classified into a total of 9 levels, and dogs with a BCS of level 6 or higher were selected, and detailed criteria are presented in Table 1 and FIG. 1.\nA total of 20 dogs were selected and divided into 4 groups with 5 dogs in each group: a normal obese control (OC); hereinafter, referred to as a control (OC)), an enavogliflozin 0.2-administered group, an enavogliflozin 0.5-administered group, and an enavogliflozin 1-administered group. The control was fed regular feed, and the enavogliflozin-administered groups were fed regular feed supplemented with enavogliflozin at doses of 0.2, 0.5, or 1 mg/kg, respectively. The feed was supplemented with enavogliflozin once a day for 8 weeks and given orally.\nBody weights (BW), chest circumferences, and waist circumferences were measured immediately before the first intake of enavogliflozin-supplemented feed, and once every two weeks for the next 10 weeks. The chest circumferences and waist circumferences were measured four times each at the thickest part of the chest and the thinnest part between the chest and hind legs, and an average size was calculated. Resting energy requirement (RER) was calculated using Equation 1 in the reference document (Brooks et al., Journal of the American Animal Hospital Association 50, 1-11. (2014)).\nFat thicknesses were evaluated by measuring the perpendicular distance from the T10 spinal process to the skin by radiography (Titan 2000 X-ray system, COMED Medical Systems Co., Ltd., Seoul, Korea) on the first day of enavogliflozin administration, and on weeks 4, 8, and 10 of administration. Body fat was measured with a body fat meter every two weeks for a total of 10 weeks after the start of enavogliflozin administration.", "key": {"[1]": {"conditions": "0.2 mg/kg once a day oral for 8 weeks, week 0"}, "[2]": {"conditions": "0.2 mg/kg once a day oral for 8 weeks, week 2"}, "[3]": {"conditions": "0.2 mg/kg once a day oral for 8 weeks, week 4"}, "[4]": {"conditions": "0.2 mg/kg once a day oral for 8 weeks, week 6"}, "[5]": {"conditions": "0.2 mg/kg once a day oral for 8 weeks, week 8"}, "[6]": {"conditions": "0.2 mg/kg once a day oral for 8 weeks, week 10"}, "[7]": {"conditions": "0.5 mg/kg once a day oral for 8 weeks, week 0"}, "[8]": {"conditions": "0.5 mg/kg once a day oral for 8 weeks, week 2"}, "[9]": {"conditions": "0.5 mg/kg once a day oral for 8 weeks, week 4"}, "[10]": {"conditions": "0.5 mg/kg once a day oral for 8 weeks, week 6"}, "[11]": {"conditions": "0.5 mg/kg once a day oral for 8 weeks, week 8"}, "[12]": {"conditions": "0.5 mg/kg once a day oral for 8 weeks, week 10"}, "[13]": {"conditions": "1 mg/kg once a day oral for 8 weeks, week 0"}, "[14]": {"conditions": "1 mg/kg once a day oral for 8 weeks, week 2"}, "[15]": {"conditions": "1 mg/kg once a day oral for 8 weeks, week 4"}, "[16]": {"conditions": "1 mg/kg once a day oral for 8 weeks, week 6"}, "[17]": {"conditions": "1 mg/kg once a day oral for 8 weeks, week 8"}, "[18]": {"conditions": "1 mg/kg once a day oral for 8 weeks, week 10"}, "[19]": {"conditions": "all enavogliflozin-administered groups"}}, "data": [{"smiles": "OC[C@H]1O[C@@H](c2cc(Cc3ccc(C4CC4)cc3)c(Cl)c3c2CCO3)[C@H](O)[C@@H](O)[C@@H]1O", "note": "[Enavogliflozin, enavogliflozin]", "values": [{"measurement": "body fat percentage, rank among groups", "setting": "0.2 mg/kg", "result": "lowest"}, {"measurement": "Change rates of chest circumference", "setting": "[1]", "result": "100.00 ± 0.00", "unit": "%"}, {"measurement": "Change rates of resting energy requirement", "setting": "[1]", "result": "100.00 ± 0.00", "unit": "%"}, {"measurement": "Change rates of waist circumference", "setting": "[1]", "result": "100.00 ± 0.00", "unit": "%"}, {"measurement": "Change rates of chest circumference", "setting": "[2]", "result": "99.20 ± 3.44", "unit": "%"}, {"measurement": "Change rates of resting energy requirement", "setting": "[2]", "result": "96.98 ± 2.69", "unit": "%"}, {"measurement": "Change rates of waist circumference", "setting": "[2]", "result": "100.53 ± 4.71", "unit": "%"}, {"measurement": "Change rates of chest circumference", "setting": "[3]", "result": "97.16 ± 2.74", "unit": "%"}, {"measurement": "Change rates of resting energy requirement", "setting": "[3]", "result": "93.41 ± 5.79", "unit": "%"}, {"measurement": "Change rates of waist circumference", "setting": "[3]", "result": "97.39 ± 12.15", "unit": "%"}, {"measurement": "Change rates of chest circumference", "setting": "[4]", "result": "95.08 ± 3.96", "unit": "%"}, {"measurement": "Change rates of resting energy requirement", "setting": "[4]", "result": "95.21 ± 4.10", "unit": "%"}, {"measurement": "Change rates of waist circumference", "setting": "[4]", "result": "98.96 ± 15.47", "unit": "%"}, {"measurement": "Change rates of chest circumference", "setting": "[5]", "result": "96.08 ± 2.60", "unit": "%"}, {"measurement": "Change rates of resting energy requirement", "setting": "[5]", "result": "94.64 ± 3.59", "unit": "%"}, {"measurement": "Change rates of waist circumference", "setting": "[5]", "result": "98.89 ± 11.98", "unit": "%"}, {"measurement": "Change rates of chest circumference", "setting": "[6]", "result": "99.18 ± 3.01", "unit": "%"}, {"measurement": "Change rates of resting energy requirement", "setting": "[6]", "result": "96.15 ± 4.75", "unit": "%"}, {"measurement": "Change rates of waist circumference", "setting": "[6]", "result": "101.98 ± 10.78", "unit": "%"}, {"measurement": "BCS compared to the control (OC)", "setting": "0.2 mg/kg, at 4, 8, and 10 weeks after the start of administration, p<0.05", "result": "significantly lower than the control (OC)"}, {"measurement": "resting energy requirement (RER) compared to the control (OC)", "setting": "0.2 mg/kg, at 4 weeks and 8 weeks after the start of administration, p<0.05", "result": "significantly lower"}, {"measurement": "body weight compared to the control (OC)", "setting": "0.2 mg/kg, from 4 weeks after the start of administration, p<0.05", "result": "significantly lower than the control (OC)"}, {"measurement": "fat thickness change, significance", "setting": "0.2 mg/kg, week 8 and week 10", "result": "significant at week 8 and week 10"}, {"measurement": "body weight", "setting": "0.5 mg/kg", "result": "decreasing at week 2 and week 4 of the trial and then slowly increasing"}, {"measurement": "Change rates of chest circumference", "setting": "[7]", "result": "100.00 ± 0.00", "unit": "%"}, {"measurement": "Change rates of resting energy requirement", "setting": "[7]", "result": "100.00 ± 0.00", "unit": "%"}, {"measurement": "Change rates of waist circumference", "setting": "[7]", "result": "100.00 ± 0.00", "unit": "%"}, {"measurement": "Change rates of chest circumference", "setting": "[8]", "result": "98.19 ± 4.31", "unit": "%"}, {"measurement": "Change rates of resting energy requirement", "setting": "[8]", "result": "98.63 ± 0.72", "unit": "%"}, {"measurement": "Change rates of waist circumference", "setting": "[8]", "result": "99.57 ± 1.71", "unit": "%"}, {"measurement": "Change rates of chest circumference", "setting": "[9]", "result": "97.16 ± 3.23", "unit": "%"}, {"measurement": "Change rates of resting energy requirement", "setting": "[9]", "result": "97.93 ± 1.00", "unit": "%"}, {"measurement": "Change rates of waist circumference", "setting": "[9]", "result": "98.45 ± 4.94", "unit": "%"}, {"measurement": "Change rates of chest circumference", "setting": "[10]", "result": "95.60 ± 4.55", "unit": "%"}, {"measurement": "Change rates of resting energy requirement", "setting": "[10]", "result": "97.54 ± 2.73", "unit": "%"}, {"measurement": "Change rates of waist circumference", "setting": "[10]", "result": "96.30 ± 3.83", "unit": "%"}, {"measurement": "Change rates of chest circumference", "setting": "[11]", "result": "93.90 ± 3.11", "unit": "%"}, {"measurement": "Change rates of resting energy requirement", "setting": "[11]", "result": "96.92 ± 2.00", "unit": "%"}, {"measurement": "Change rates of waist circumference", "setting": "[11]", "result": "93.84 ± 5.54", "unit": "%"}, {"measurement": "Change rates of chest circumference", "setting": "[12]", "result": "96.43 ± 2.76", "unit": "%"}, {"measurement": "Change rates of resting energy requirement", "setting": "[12]", "result": "98.79 ± 2.30", "unit": "%"}, {"measurement": "Change rates of waist circumference", "setting": "[12]", "result": "96.00 ± 4.72", "unit": "%"}, {"measurement": "BCS", "setting": "0.5 mg/kg, entire experimental period", "result": "decreased during the entire experimental period"}, {"measurement": "Change rates of chest circumference", "setting": "[13]", "result": "100.00 ± 0.00", "unit": "%"}, {"measurement": "Change rates of resting energy requirement", "setting": "[13]", "result": "100.00 ± 0.00", "unit": "%"}, {"measurement": "Change rates of waist circumference", "setting": "[13]", "result": "100.00 ± 0.00", "unit": "%"}, {"measurement": "Change rates of chest circumference", "setting": "[14]", "result": "94.79 ± 6.67", "unit": "%"}, {"measurement": "Change rates of resting energy requirement", "setting": "[14]", "result": "97.75 ± 2.32", "unit": "%"}, {"measurement": "Change rates of waist circumference", "setting": "[14]", "result": "95.97 ± 11.67", "unit": "%"}, {"measurement": "Change rates of chest circumference", "setting": "[15]", "result": "99.81 ± 2.43", "unit": "%"}, {"measurement": "Change rates of resting energy requirement", "setting": "[15]", "result": "98.11 ± 2.18", "unit": "%"}, {"measurement": "Change rates of waist circumference", "setting": "[15]", "result": "99.18 ± 8.09", "unit": "%"}, {"measurement": "Change rates of chest circumference", "setting": "[16]", "result": "100.54 ± 4.98", "unit": "%"}, {"measurement": "Change rates of resting energy requirement", "setting": "[16]", "result": "98.95 ± 2.07", "unit": "%"}, {"measurement": "Change rates of waist circumference", "setting": "[16]", "result": "103.75 ± 10.54", "unit": "%"}, {"measurement": "Change rates of chest circumference", "setting": "[17]", "result": "99.20 ± 4.49", "unit": "%"}, {"measurement": "Change rates of resting energy requirement", "setting": "[17]", "result": "99.19 ± 4.05", "unit": "%"}, {"measurement": "Change rates of waist circumference", "setting": "[17]", "result": "99.76 ± 12.53", "unit": "%"}, {"measurement": "Change rates of chest circumference", "setting": "[18]", "result": "100.24 ± 5.15", "unit": "%"}, {"measurement": "Change rates of resting energy requirement", "setting": "[18]", "result": "99.97 ± 6.15", "unit": "%"}, {"measurement": "Change rates of waist circumference", "setting": "[18]", "result": "101.33 ± 14.44", "unit": "%"}, {"measurement": "BCS compared to the control (OC)", "setting": "1 mg/kg, at the end of the experiment", "result": "lower than the control (OC) at the end of the experiment"}, {"measurement": "BCS compared to the control (OC)", "setting": "1 mg/kg, during the experiment", "result": "slightly increased compared to the control (OC)"}, {"measurement": "BCS, body weight, body fat percentage, fat thickness, and chest and waist circumferences", "setting": "8-week administration", "result": "reduced"}, {"measurement": "fat thickness", "setting": "all administration groups (0.2, 0.5, 1 mg/kg)", "result": "decreased in all administration groups"}, {"measurement": "chest circumference", "setting": "[19]", "result": "decreased"}, {"measurement": "waist circumference", "setting": "[19]", "result": "decreased"}, {"measurement": "body fat percentage", "setting": "all groups (0.2, 0.5, 1 mg/kg)", "result": "no significant differences"}, {"measurement": "anti-obesity results, comparison of doses", "setting": "feed supplemented with 0.2 mg/kg", "result": "most effective results"}]}]}
